The source of these data is US6365633B1, “Method of treating eating disorders” (Knoll Pharmaceutical Company, priority 1999, dated 2002).

In assay [1] the target is [3H]Noradenaline reuptake in rat brain tissue. As to the kind of experiment: in vitro [3H]noradrenaline reuptake inhibition in rat brain tissue. Format: biochemical. Particulars: means of ≧3 separate determinations.
Assay [2] deals with [3H]Dopamine reuptake in rat brain tissue. As to the kind of experiment: in vitro [3H]dopamine reuptake inhibition in rat brain tissue. Format: biochemical. Particulars: means of ≧3 separate determinations.

Molecules are shown by their SMILES.

With `CC(NC(C)(C)C)C(=O)c1cccc(Cl)c1` (stereo not shown) [Bupropion], the Ki (in general, the equilibrium dissociation constant of an inhibitor or competing ligand from its target) was 2590 nM in assay [1] and 409 nM in assay [2].

With `COc1ccc(C(CN(C)C)C2(O)CCCCC2)cc1` (stereo not shown) [Venlafaxine], the Ki in assay [1] stood at 196 nM; in assay [2], 2590 nM.
